The values below come from patent publication US20070149483A1, “Methods and compounds for modulating triglyceride and vldl secretion” (priority 2003, published 2007).

In data set [1] the test system is McA-RH7777 cells stably expressing human apoB100. Kind of data set: Immunofluorescent localization of apoB and Map1LC3. The format is cell-based, rat. The conditions noted are these: 0.4 mM, 4 h, in comparison to controls.
Data set [2] has the same test system. The conditions noted are these: Tran et al., 2002, cited from earlier work.
Data set [3] shares this test system. The data set can be described thus: Pulse-chase with subcellular fractionation: membrane-associated apoB100 trafficking. The format is cell-based, rat. The conditions noted are these: 20 min pulse. On the procedure: The cells were then incubated with chase medium for 15, 30 and 45 min. At the end of each chase time, the medium was collected and subjected to cumulative rate flotation centrifugation (Wang et al., 1999) to resolve apoB100-VLDL1 (Sf>100) and apoB100-VLDL2 (Sf 20-100) from other lipoproteins (i.e. IDL, LDL and HDL). The ^35S-apoB100 in each fraction was recovered by immunoprecipitation. Also, at the end of each chase time, the radiolabeled cells were harvested in 2 ml of ice-cold homogenization buffer (10 mM Tris-HCl, pH 7.4, 250 mM sucrose, 5 mM EDTA, and serine/cysteine protease inhibitor mixture), mixed with two 100-mm dishes of unlabeled cells, homogenized by passing ten times through a ball-bearing homogenizer, and subjected to subcellular fractionation and carbonate-treatment as described below. […]
Analysis of ApoB100 Associated with Membranes and Lumenal Contents of Microsomes—Lumenal contents were separated from membranes by sodium carbonate treatment followed by centrifugation (Tran et al., 2002). The ^35S-labelled apoB100 proteins associated with the membrane and lumen were recovered by immunoprecipitation and analyzed by SDS-PAGE/fluorography as previously described (Tran et al., 2002). […]

Data set [4] concerns McA-RH777 cells. The conditions noted are these: oleate-treated cells; cited from earlier work.
Data set [5] concerns McA-RH7777 cells expressing human apoB100. Kind of data set: Pulse-chase of [35S]apoB100 with rate flotation of conditioned medium and microsomal lumen. The format is cell-based, rat. The conditions noted are these: 30 min pulse, end of 1-h chase. The procedure:
Cell Culture and Fatty Acid Treatments—Transfected McA-RH7777 cells stably expressing human apoB100 (McLeod et al., 1994, J. Biol. Chem. 269, 2852-2862) were cultured in Dulbecco's modified Eagle's medium (DMEM) containing 10% fetal bovine serum (FBS), 10% horse serum and 200 μg/ml G418. Routinely, the cells were incubated with 0.4 mM fatty acids for 16-18 h in the presence of 20% FBS prior to experiments.

The test system of data set [6] is McA-RH7777 cells stably expressing human apoB100. Kind of data set: Transmission electron microscopy morphometry of lipid/lipoprotein particles in Golgi and GAV. The format is cell-based, rat. The conditions noted are these: for relative occurrence of particle type in the GAV: n=221; for relative occurrence of particle type in trans-Golgi saccules 4-6+TGN/secretory vesicles: n=284. The procedure:
The samples were processed for transmission electron microscopy as previously described (Tran et al., 2002). Single and serial thin sections (silver-gold interference colors) were visualized in a Hitachi H-7000 transmission electron microscope, and captured at a range of negative magnifications (8,000-120,000 times). Panoramic tiling was used to capture large fields. The 3D model was prepared from Golgi fields from 7 consecutive serial images (positive magnification=70,000 times), by the method previously described (Thorne-Tjomsland et al., 1998, Anat. Rec. 250, 381-396), with the following modifications. The serial fields were scanned into Adobe Photoshop 5.5 of an Imac 700 MHz G4 computer. Alignment of consecutive sections by fiducial markers was carried out prior to object-contouring and -separation. Concatenation and volume rendering were done in Synu on an SGI-OS 2, and image capture was with Photoshop on a Macintosh platform. The diameter of electron-dense particles, which represent a combination of lipoprotein particles and lipid droplets, were measured in 40 randomly selected Golgi regions from EPA-treated cells. Negative magnification was 40,000 times and positives were further magnified three times. Measurements were from positives, using a digital caliper [technical specifications in required range (0-150 mm on positive): max resolution=0.01 mm; accuracy=0.02 mm; repeatability=0.01 mm]. The precision in our system was tested by measuring the diameters of each of two electron-dense particles (20 nm and 40 nm diameter) 40 times; SD for the average converted measurements was <1 nm. Criteria for selecting Golgi, establishing cis-trans polarity, and measuring lipid/lipoprotein particles were as described (Tran et al., 2002). Lipid/lipoprotein particles were classified as membrane-associated if directly apposed to the lumenal Golgi leaflet or with a membrane diverging from this, otherwise as lumenal.

Turning to `CCCCCCCC/C=C\CCCCCCCC(=O)O` [Oleate, oleic acid], the “autophagy (penetration of Map1LC3 staining into the apoB100-rich perinuclear area, partial co-localization with apoB100)” value in data set [1] is reported as “induced autophagy”. Further, the “size of lipoprotein particles detected in oleate-treated cells” value in data set [2] was 40 nm. Moreover, the “average diameters of lipoproteins in Golgi saccules 1-6” value in data set [2] (oleate-treated McArdle cells) is 40±17 nm. For the same molecule, the “rate at which the membrane-associated [^35S]-apoB100 exited the ER” value in data set [3] (chase 0, 15, 30 and 45 min) is listed as −0.59±0.17 % of total/min. Besides, the “rate at which the membrane-associated [^35S]-apoB100 appeared in the distal Golgi” value in data set [3] (chase 0-45 min) is 0.39±0.11 % of total/min. Further, in data set [4], the “share of total secreted TG carried by VLDL particles” value is above 80% and the “share of total secreted apoB100 carried by VLDL particles” value was below 10%.

For the molecule `CC/C=C\C/C=C\C/C=C\C/C=C\C/C=C\CCCC(=O)O` [EPA, eicosapentaenoic acid], the “increase of [^35S]-apoB100 in fractions of high density (IDL and LDL) in the microsomal lumen” value in data set [5] (vs oleate) was “six-fold”. Further, in data set [5] (16 h pretreatment), the “decrease of [^35S]-apoB100 in VLDL (VLDL1 and VLDL2) in the media, as compared to oleate-treatment” value came out at 50%. The “average size of Type I particles in the cis-most Golgi saccule” value in data set [6] (EPA-treated cells) was 100 nm. Moreover, in data set [6] (EPA-treated cells), the “average size of Type V particles” value is on record as 54.5 nm. In data set [6] (EPA-treated cells), the “sizes of Type V particles in the Golgi” value was 25-75 nm. The “Percent membrane association of particles” value (“Percent membrane association” for short) was 33% in data set [6] (Type I, GAV); 100% in data set [6] (Type I, Golgi saccule 1); 84% in data set [6] (Type I, Golgi saccule 2); 80% in data set [6] (Type I, Golgi saccule 3); 73% in data set [6] (Type I, Golgi saccules 4-6); 56% in data set [6] (Type I, TGN and secretory). The “Percent membrane association” value in data set [6] (Type II, GAV) was found to be 25%; in data set [6] (Type II, Golgi saccule 1), 100%; in data set [6] (Type II, Golgi saccule 2), 83%; in data set [6] (Type II, Golgi saccule 3), 75%; in data set [6] (Type III, GAV), 46%; in data set [6] (Type III, Golgi saccule 1) it was 100%. Besides, the “Percent membrane association” value in data set [6] (Type III, Golgi saccule 2) came to 83%; in data set [6] (Type III, Golgi saccule 3), 83%; in data set [6] (Type III, Golgi saccules 4-6), 82%; in data set [6] (Type III, TGN and secretory), 73%; in data set [6] (Type IV, GAV) it was 45%; in data set [6] (Type IV, Golgi saccules 4-6) it was 50%. The “Percent membrane association” value in data set [6] (Type IV, TGN and secretory) is 20%; in data set [6] (Type IV, combined Golgi saccules 1-3) it was 67%; in data set [6] (Type V, GAV), 42%; in data set [6] (Type V, Golgi saccule 1), 96%; in data set [6] (Type V, Golgi saccule 2), 83%; in data set [6] (Type V, Golgi saccule 3), 66%. Moreover, the “Percent membrane association” value in data set [6] (Type V, Golgi saccules 4-6) was 64%; in data set [6] (Type V, TGN and secretory), 66%. Also, the “relative occurrence of particle type in the GAV” value in data set [6] (Type I) worked out at 12%; in data set [6] (Type II) it was 2%; in data set [6] (Type III), 11%; in data set [6] (Type IV), 5%; in data set [6] (Type V), 70%. The “relative occurrence of particle type in trans-Golgi saccules 4-6+TGN/secretory vesicles” value in data set [6] (Type I) is on record as 12%; in data set [6] (Type II) it was 4%; in data set [6] (Type III), 13%; in data set [6] (Type IV), 5%; in data set [6] (Type V) it was 66%.
